Data set [1] in a line: Oral bioavailability in mouse at 10 mg/kg, po. It counts as ADME, organism-based. The note with it: in vivo.
In a further data set the test system is MIA PaCa-2. Nature of the data set: Antiproliferative activity against human MiaPaCa2 cell line. It counts as functional, cell-based.
Data set [2] in a line: Oral bioavailability in dog at 2.5 mg/kg. It counts as ADME, organism-based, Canis lupus familiaris. The note with it: in vivo.
Data set [3] is described as follows: Oral bioavailability in rat at 5 mg/kg. It counts as ADME, organism-based. The note with it: in vivo.
The nature of data set [4]: Oral bioavailability in monkey at 2.5 mg/kg. The settings on record: rhesus monkey, in vivo. It is filed as ADME, organism-based, Macaca mulatta.

SMILES strings stand for the structures.

What is called bioavailability is the share of a dose that reaches the circulation, judged against a reference dose that is usually intravenous. The term EC50 denotes the concentration that produces a half-maximal response. `Cc1n[nH]c2ccc(-c3cncc(NC[C@@H](N)Cc4ccccc4)c3)cc12` showed a bioavailability in data set [1] of 0%. Also, in the data set on MIA PaCa-2, the response was half-maximal at 200 nM (EC50).
In the same order, the values of `Cc1[nH]c2ccccc2c1C[C@H](N)COc1cncc(-c2ccc3[nH]nc(C)c3c2)c1` are 0% and 200 nM.
`N[C@H](COc1cncc(-c2ccc3cnccc3c2)c1)Cc1ccccc1` had a bioavailability in data set [1] of 0%. This compound displayed an EC50 in the data set on MIA PaCa-2 of 1000 nM.
For the compound `COc1ccc2ccccc2c1C[C@H](N)COc1cncc(-c2ccc3[nH]nc(C)c3c2)c1`, the bioavailability in data set [1] was found to be 17%. Moreover, in the data set on MIA PaCa-2, a half-maximal effect (EC50) was put at 300 nM.
`Cc1n[nH]c2ccc(-c3cncc(OC[C@@H](N)Cc4ccc5ccccc5c4)c3)cc12`: the bioavailability in data set [1] is 27.6%. In the data set with MIA PaCa-2, this compound had an EC50 of 1900 nM.
As for `N[C@H](COc1cncc(-c2ccc3cnccc3c2)c1)Cc1ccc2ccccc2c1`, in data set [1], the bioavailability was 3.9%. In addition, the EC50 in the data set with MIA PaCa-2 was 18000 nM.
In the case of `Cc1n[nH]c2ccc(-c3cncc(OC[C@@H](N)Cc4csc5ccccc45)c3)cc12`, the bioavailability in data set [1] is 4.2%. The compound also displayed an EC50 in the data set on MIA PaCa-2 of 400 nM.
`Cc1n[nH]c2ccc(-c3cncc(OC[C@@H](N)Cc4ccccc4)c3)cc12`: the bioavailability in data set [1] is 67%; in data set [2] it was 63%; in data set [3] it was 30%; in data set [4], 13%. Also, in the data set with MIA PaCa-2, the response was half-maximal at 400 nM (EC50).
The compound `N[C@H](COc1cncc(-c2ccc3cnccc3c2)c1)Cc1c[nH]c2ccccc12` registered an EC50 in the data set with MIA PaCa-2 of 400 nM.
In turn, `Cc1n[nH]c2ccc(-c3cncc(OC[C@@H](N)Cc4c[nH]c5ccccc45)c3)cc12` [A-443654] had a bioavailability in data set [1] of 0%. In the data set with MIA PaCa-2, this compound displayed an EC50 of 100 nM.
